# From patent publication US12691109B2, “Bifunctional aggregation-induced emission luminogen for monitoring and killing of multidrug-resistant bacteria” (The Hong Kong University of Science and Technology, priority 2018, dated 2026)
# “Also recorded” adds a separate entry of the source.
# What was measured:
# S. aureus = experiment: Light-enhanced bacteria killing, plate counting method; type: cell-based
# Description: (§1) FIGS. 15C-F are graphs depicting bacteria survival rates for bacteria that were incubated with TriPE-NT (10 μM) for 10 min, the bacteria suspensions (50 μL) were plated on agar plates and treated by white-light illumination (4 mW cm^−2) for 0, 2 and 30 min respectively. FIG. 15C is a graph plotting survival rate versus time of E. coli and MDR E. coli. FIG. 15D is a graph plotting survival rate versus time of K. pneumoniae and MDR K. pneumoniae. FIG. 15E is a graph plotting survival rate versus time of S. epidermidis and MDR S. epidermidis. FIG. 15F is a graph plotting survival rate versus time of S. aureus and MDR S. aureus.
# (§2) The bacteria killing effect of TriPE-NT was evaluated on both wild and clinically isolated MDR bacteria by a traditional plate counting method. First, E. coli and S. epidermidis, as the representative of Gram-negative (G−) and Gram-positive (G+) bacteria, were used to determine the effective bactericidal concentration and illumination time. The bacteria were incubated with TriPE-NT (0, 5, 10 μM) for 0 and 10 min, the bacteria suspensions (50 μL) were plated on agar plates and treated by white-light illumination (4 mW cm^−2) for 2, 10 and 30 min respectively (FIGS. 16A-B). […] Thus, 10 μM TriPE-NT and light irradiation for 2 min or 30 min were set as experimental conditions in the following experiments.
# MDR K. pneumoniae = experiment: as above; type: cell-based
# Description: as §1, §2
# S. epidermidis [1] = experiment: as above; type: cell-based; settings: 5 μM, light irradiation of 2 min
# Description: as §1
# (§3) FIGS. 16A-B are graphs depicting bacteria survival rates for bacteria that were incubated with TriPE-NT (0, 5, 10 μM) for 0 (S-0) and 10 (S-10) min, the bacteria suspensions (50 μL) were plated on agar plates and treated by white-light illumination (4 mW cm^−2) for 2 (I-2), 10 (I-10) and 30 (I-30) min respectively. FIG. 16A is a graph plotting the survival rate versus time of E. coli. FIG. 16B is a graph plotting the survival rate versus time of S. epidermidis.
# as §2
# E. coli [2] = experiment: as above; type: cell-based
# Description: as §1, §3, §2
# E. coli-infected wounds = experiment: Bacteria-infected full-thickness skin wound model on rats; type: in vivo, Wistar rats
# Source text: (§4) FIGS. 26A-D show In vivo evaluation of TriPE-NT in treatment of bacteria-infected wounds on rats. FIG. 26A illustrates the process of establishing bacteria-infected full-thickness skin wound models on rats. […] FIG. 26C is a graph plotting the proportion of the E. coli and MDR E. coli infected wound area on day 3 and day 7 after the injury. FIG. 26D is a graph plotting the proportion of the S. epidermidis and MDR S. epidermidis infected wound area on day 3 and day 7 after the injury (each experiment was repeated at least 5 times).
# (§5) To further evaluate the anti-bacterial activity of TriPE-NT in vivo, the performance of TriPE-NT on bacteria-infected wounds of rats was tested. E. coli-, MDR E. coli-, S. epidermidis or MDR S. epidermidis-infected, full-thickness skin wounds were established on the dorsal skin of the Wistar rats (FIG. 26A). The macroscopic appearance of the healing processes of the wounds was captured at different time points (FIG. 26B).
# (§6) Hematoxylin and eosin (HE) staining was carried out for evaluating the wound healing of the sectioned tissues of the E. coli-, MDR E. coli-, S. epidermidis- and MDR S. epidermidis-infected wounds on the Wistar rats on day 3 and day 7 post-injury (FIG. 28). […] Fibroblasts can secret collagens which accelerate wound reconstruction, that means the TriPE-NT plus light irradiation can promote the wound healing.
# [3] = tested on: S. epidermidis-infected wounds; experiment: as above; type: in vivo, Wistar rats
# Source text: as §4, §5, §6
# [4] = tested on: MDR S. epidermidis-infected wounds; experiment: as above; type: in vivo, Wistar rats
# Source text: as §4, §5, §6
# [5] = tested on: MDR E. coli-infected wounds; experiment: as above; type: in vivo, Wistar rats
# Source text: as §4, §5, §6
# S. epidermidis [6] = experiment: Bacteria staining with TriPE-NT and PI, CLSM; type: cell-based; settings: 10 min
# Description: (§7) TriPE-NT: Ex, 405 nm, Em, 500-560 nm; PI: Ex, 514 nm, Em, 600-700 nm.
# (§8) FIG. 21B is a graph plotting stained percentages for E. coli, MDR E. coli, K. pneumoniae, MDR K. pneumoniae, S. epidermidis, MDR S. epidermidis, S. aureus, and MDR S. aureus.
# (§9) FIG. 21C is a graph plotting percentage of dead bacteria stained by propidium iodine (PI) after the bacteria were incubated with 10 μM of TriPE-NT or PI for 10 min.
# (§10) To indicate the status of the bacteria after TriPE-NT treatment, the bacteria was incubated with commercial dead bacteria-staining fluorescent reagent propidium iodide (PI) and TriPE-NT at the same time. Thanks to the AIE characteristics and water solubility of TriPE-NT, there was almost no background fluorescence in the imaging field. E. coli and S. epidermidis, which emitted bright orange (TriPE-NT) or red (PI) fluorescence, are clearly visualized under confocal laser scanning microscope (CLSM) (FIG. 21A-C, 22-23). […] In comparison, relatively low percentage of Gram-negative bacteria were stained by TriPE-NT (e.g., 88.1±9.8% E. coli, 84.3±12.7% MDR E. coli, 47.9±7.7% K. pneumoniae and 35.8±4.9% MDR K. pneumoniae) (FIG. 21B, FIG. 22). […] By contrast, relatively low percentages of E. coli (22.1±12.2% E. coli) were co-stained by both TriPE-NT and PI (FIGS. 21A, C), which is also similar to other Gram-negative bacteria (15.3±3.7%, MDR E. coli, 8.8±3.2%, K. pneumoniae and 6.4±2.6% MDR K. pneumoniae) (FIGS. 21A & C, 22). The reason for this difference possibly is ascribed to the extra membrane of Gram-negative bacteria which is absent in Gram-positive bacteria. These observations also illustrated that both Gram-negative bacteria and Gram-positive bacteria are vulnerable to TriPE-NT treatment, the possible reason is that these bacteria with negatively charged membranes, could anchor, uptake, and aggregate the positively charged probe, which restricts the intramolecular motion of the probe and causes their fluorescence emission.
# E. coli [7] = experiment: Bacteria staining with TriPE-NT and PI, CLSM; type: cell-based; settings: 10 min
# Description: as §7, §8, §9, §10
# [8] = 10 μM, white light 4 mW cm^−2, 30 min
# [9] = day 3 post-injury, TriPE-NT plus light vs control
# [10] = day 3 post-injury, TriPE-NT plus light vs untreated
# [11] = day 7 post-injury, TriPE-NT plus light (4 mW cm^−2, 30 min) vs control
# [12] = day 7 post-injury, TriPE-NT plus light vs control
smiles,measurement,setting,value
COc1ccc(C(=Cc2ccc(-c3ccc4c5c(cccc35)C(=O)N(CCCCn3c[n+](Cc5ccc(F)cc5F)cn3)C4=O)cc2)c2ccc(OC)cc2)cc1 [TriPE-NT],S. aureus killed,S. aureus; [8],> 98%
same,survival rate of S. aureus,"S. aureus; in darkness, 10 μM TriPE-NT",~8.9±1.1%
same,MDR K. pneumoniae killed,MDR K. pneumoniae; [8],> 61%
same,survival rate of MDR K. pneumoniae,"MDR K. pneumoniae; in darkness, 10 μM TriPE-NT",~74.4±3.7%
same,S. epidermidis killed,S. epidermidis [1],all S. epidermidis were killed
same,E. coli killed,E. coli [2]; [8],killed all and all
same,survival rate of E. coli,"E. coli [2]; in darkness, 10 μM TriPE-NT",approximately 6.8±0.6%
same,"wound size, E. coli-infected wounds",E. coli-infected wounds; [9],no apparent difference
same,"HE staining of wound tissue, invaded lymphocytes, E. coli-infected wounds",E. coli-infected wounds; [10],reduced the inflammatory reactions
same,"wound size, E. coli-infected wounds",E. coli-infected wounds; [11],more apparent reduction of wound size
same,"wound size, S. epidermidis-infected wounds",[3]; [9],no apparent difference
same,"HE staining of wound tissue, invaded lymphocytes, S. epidermidis-infected wounds",[3]; [10],reduced the inflammatory reactions
same,"wound size, S. epidermidis-infected wounds",[3]; [11],more apparent reduction of wound size
same,"HE staining of wound tissue, S. epidermidis-infected wounds",[3]; [12],appearance of fibroblasts and newly formed squamous epithelial layers; also recorded: appearance of hair follicles
same,"wound size, MDR S. epidermidis-infected wounds",[4]; [9],no apparent difference
same,"HE staining of wound tissue, invaded lymphocytes, MDR S. epidermidis-infected wounds",[4]; [10],reduced the inflammatory reactions
same,"wound size, MDR S. epidermidis-infected wounds",[4]; [11],significantly smaller sizes
same,"HE staining of wound tissue, MDR S. epidermidis-infected wounds",[4]; [12],appearance of fibroblasts and newly formed squamous epithelial layers
same,"wound size, MDR E. coli-infected wounds",[5]; [9],no apparent difference
same,"HE staining of wound tissue, invaded lymphocytes, MDR E. coli-infected wounds",[5]; [10],reduced the inflammatory reactions
same,"wound size, MDR E. coli-infected wounds",[5]; [11],significantly smaller
same,percentage of S. epidermidis co-stained by TriPE-NT and PI (dead bacteria),S. epidermidis [6]; 10 μM TriPE-NT and PI,80.9±15.8%
same,percentage of S. epidermidis stained by TriPE-NT,S. epidermidis [6]; 10 μM,96.2±5.6%
same,percentage of E. coli co-stained by TriPE-NT and PI (dead bacteria),E. coli [7]; 10 μM TriPE-NT and PI,22.1±12.2%
same,percentage of E. coli stained by TriPE-NT,E. coli [7]; 10 μM,88.1±9.8%
